The test system of assay [1] is Cercospora beticola (strain E897). As to the kind of experiment: Anti-fungal activity against foliar disease: in vivo test on sugarbeet plants. To be noted: foliar spray one day prior to inoculation.
For assay [2], the system named is Cercospora beticola strain K897. In kind it is cell-based.
Assay [3] relates to Fusarium culmorum IMI 180420. In kind it is cell-based.
Assay [4] has as its system Fusarium oxysporum f.sp. pisi IMI 236441. Type of assay: cell-based.
In assay [5] the test system is Rhizoctonia solani CBS 207-84. Type of assay: cell-based.
Assay [6] deals with Sclerotinia sclerotianum MUCL 30163. Type of assay: cell-based.
For assay [7], the system named is Septoria nodorum MUCL 30111. In kind it is cell-based.
Assay [8] concerns Trichoderma hamatum MUCL 29736. Type of assay: cell-based.
Assay [9] has as its system Venturia inaegualis MUCL 15927. Type of assay: cell-based.
Another assay has as its system plant pathogenic fungi. In kind it is cell-based.
In a further assay the test system is F culmorum and T hamatum. Type of assay: cell-based, Fusarium culmorum, Trichoderma hamatum. The procedure:
Antifungal activity was measured by microspectrophotometry as previously described (Broekaert, 1990, FEMS Microbiol Lett, 69:55-60). Routinely, tests were performed with 20 μl of a (filter-sterilized) test solution and 80 μl of a suspension of fungal spores (2×10^4 spores/ml) in half strength potato dextrose broth (1/2 PDB). Some tests were performed using a suspension of mycelium fragments in a synthetic growth medium. […] Control microcultures contained 20 μl of sterile distilled water and 80 μl of the fungal suspension.
Unless otherwise stated the test organism was Fusarium culmorum (strain IMI 180420) and incubation was done at 25° C. for 48 hours. Percent growth inhibition is defined as 100 times the ratio of the corrected absorbance of the control microculture minus the corrected absorbance of the test microculture over the corrected absorbance at 595 nm of the control microculture. The corrected absorbance values equal the absorbance at 595 nm of the culture measured after 48 hours minus the absorbance at 595 nm measured after 30 min.
The effect of ions on the antifungal activity of the Rs-AFPs and Rs-nsLTP was examined in more detail. […] The reference medium was the synthetic growth medium described in Example 1 which contains a total of 2.5 mM monovalent cations and 0.1 mM divalent cations. […]

The subject of assay [10] is Bacillus megaterium ATCC 13632. In kind it is cell-based.
The subject of assay [11] is Agrobacterium tumefaciens C58, Alcaligenes eutrophus, Azospirillum brasilense Sp7, Bacillus megaterium ATCC 13632, Erwinia carotovora strain 3912, Escherichia …. Type of assay: cell-based.

Values joined by “and” are separate entries in the source; they are usually repeats but may differ in a detail not shown here. Equal values may be shown once. Bounds are passed on as bounds.

As to `CCCCC(O)(Cn1cncn1)c1ccc(Cl)cc1Cl` (stereo not shown) [hexaconazole, reference compound], in assay [1], the “concentration giving 50% control of the disease” value is recorded as “approximately 7 μM”.
With “Rs-AFP2: antifungal protein from Raphanus sativus (radish) seeds, oligomeric, identical 5 kDa subunits, highly basic (QKLCQRPSGTWSGVCGNNNACKNQCIRLEKARHGSCNYVFPAHKCICYFPC; UniProt P30230 30-80, looked up)”, the IC50 is 2 μg/m1 and 3 μg/m1 in assay [2]; 2 µg/mL and 5 µg/mL in [3]; 2 μg/m1 in [4]; more than 100 μg/m1 in assay [5]; more than 100 μg/m1 in [6]; 15 μg/m1 and 20 μg/m1 in assay [7]. The IC50 in assay [8] was 2 µg/mL; in [9], 25 μg/m1 and >50 μg/m1. Also, the “antifungal activity of the reversed-phase HPLC peak in medium A and medium B” value in assay [3] is “active in both medium A and medium B”. In the assay with plant pathogenic fungi, the “fungi inhibited by more than 50% at concentrations below 100 μg/ml” value is recorded as 11 out of 18. The “effect of Ca2+ on antifungal activity” value in the assay on F culmorum and T hamatum (CaCl2 at 5 mM) is “varied from a slight increase in IC50 for F culmorum to complete inactivation for T hamatum”. Further, the “effect of K+ on antifungal activity” value in the assay on F culmorum and T hamatum (KCl at up to 50 mM) is “did not affect the antifungal activity”. In addition, the “concentration causing 50% inhibition of growth” value in [10] stood at 200 µg/mL. In addition, the “effect on the other bacteria” value in assay [11] is listed as “no effect”. Moreover, the “concentration giving 50% control of the disease” value in assay [1] is reported as “approximately 15 μM”.

Values taken from US20010014732A1, “Biocidal proteins” (ZENECA Limited, priority 1991, published 2001).
